For data set [1], the system named is LUHMES cells. Put plainly: MitoMet (UKN4b) neurite outgrowth assay. In kind it is cell-based, human. The note with it: for IC25: Homo sapiens, benchmark response 25%, neurite area, 24 h exposure, three independent experiments, read-out: BMC25 neurite outgrowth; for fold change between BMC25 values of parent and metabolite (potency ratio, parent divided by metabolite): listed under the metabolite, >1 = metabolite more potent. The method, then: Figure 1 (A) A strategy scheme to assess metabolite-mediated hazard in NAMs used for neurotoxicity or developmental neurotoxicity. Parent and metabolite compounds are tested separately in the respective assay. This strategy is applicable when there is prior knowledge of metabolite formation. A decision rule based on the relative toxicities (X) of the parent and metabolite may be applied to decide whether next-generation risk assessment (NGRA) should be applied to the metabolite. The value of X may be defined according to the problem formulation and the NAM used. (B) An assay scheme of the neurite outgrowth assay used here for exemplification: Proliferating LUHMES cells were replated one day before differentiation was initiated (day −1). After two days (day 2) in differentiation medium, the cells were replated into assay format (96-well). At this point, neurite growth was re-initiated. The cells were treated with toxicants 1 h after replating. Neurite outgrowth and viability were determined 24 h later, using automated high content imaging. (C) Comparison of neurite outgrowth of cultures treated with bromethalin and desmethyl-bromethalin one exemplary parent/metabolite pair (chemical structures shown). […] The curves are based on data from three independent experiments and were fitted using a four-parameter Hill function. Data points shown are arithmetic means of data from independent experiments ±SEM. In each independent experiment, the technical replicates were measured and averaged. A benchmark response (BMR) of 25% was used as specified in the detailed assay description, and the respective benchmark concentration (BMC25) was determined. […] (D) Microscopic images of calcein-stained LUHMES cells. Similar images are used for neurite quantification. Treatment with 40 nM of the parent (left) or metabolite (right). The scale bar in orange corresponds to 50 µm. […] It stands under panel C and to the right of panel D, and was assigned to C.
(§1) The MitoMet neurite outgrowth assay was performed as previously described. In brief, all cell culture dishes and flasks were pre-coated with 50 μg/mL poly-l-ornithine (PLO) and 1 μg/mL fibronectin. Proliferating LUHMES cells were maintained in AdvDMEM/F12 containing L-glutamine (2 mM), N2 supplement (1x), and FGF (40 ng/mL). For pre-differentiation, the cells were replated at a density of 46,000 cells/cm^2 one day prior to the induction of differentiation (defined as the day of differentiation, Day −1). Differentiation was initiated by exchanging the culture medium for AdvDMEM/F12 supplemented with L-glutamine (2 mM), N2 supplement (1x), dibutyryl-cAMP (1 mM), tetracycline (1 µg/mL), and GDNF (2 ng/mL). After two days of differentiation (Day 2), the cells were replated (100,000 cells/cm^2) into 96-well plates. The final assay medium consisted of glucose-free AdvDMEM/F12 supplemented with galactose (18 mM), L-glutamine (2 mM), and tetracycline (1 µg/mL). One hour after replating, the cells were treated with a 10× concentrated stock solution of the test compound. Neurite outgrowth and viability were determined 24 h later, using automated high content imaging.
The image acquisition and analysis were conducted according to established protocols. The cells were stained with Hoechst H-33342 (1 µg/mL) to visualise nuclei and calcein-AM (1 µM) to label viable cell structures. Fluorescent images were acquired using an automated imaging system.

For data set [2] the following is noted: for extent of metabolite formation / cofactor (NADPH) dependence of metabolite formation: result in words; for cofactor (NADPH) dependence of metabolite formation: human liver microsomes ± NADPH; for metabolite formation over time: samples every 30 min for 2 h. The method, then: Parent compounds were incubated at final concentrations of either (a) 5 µM or (b) 50 µM (for chlorfenapyr) with pooled human liver microsomes (HLM; mixed gender, n = 150; BioIVT; West Sussex, UK) at corresponding protein concentrations of (a) 0.52 mg/mL or (b) 5.2 mg/mL. Incubations were performed in the absence or presence of NADPH at final concentrations of (a) 1 mM or (b) 10 mM, respectively, using a thermostated orbital shaker at 37 °C and 150 rpm. Reactions were terminated at designated time points by the addition of acetonitrile/methanol (3:1, v/v). Samples were then centrifuged at 10,000× g for 10 min, and the resulting supernatants were analysed by LC-MS/MS.
All analytes were measured using an Acquity UPLC H-Class system coupled to a Xevo TQ-S micro mass spectrometer (Waters). Chromatographic separation was performed on an Acquity UPLC BEH C18 column (2.1 × 50 mm, 1.7 µm) with a mobile phase consisting of 0.1% formic acid in water (A) and acetonitrile (B). Unless otherwise stated, the column was maintained at 30 °C and operated at a flow rate of 0.4 mL/min. The standard gradient was 95% A from 0 to 1.0 min, decreased to 2% A by 1.5 min, held until 4.0 min, returned to 95% A at 4.3 min, and held until 5.0 min. […] The mass spectrometer operated in electrospray ionisation (ESI) mode. Compound-specific MRM transitions, cone voltages, and collision energies for all analytes are listed in Supplementary Table S2.
Int. J. Mol. Sci. 2025, 26, x FOR PEER REVIEW 3 of 5
Supplementary Figure S3: Quantification of specific metabolite formation from selected parent/metabolite pairs in a human liver microsomes (HLM) assay. Parent compounds (PAR) were incubated at a concentration of 5 µM (50 µM for chlorfenapyr) with HLM in the absence (dashed line, open symbols) or presence of NADPH (solid lines, closed symbols). Samples were taken every 30 min for 2 h (+NADPH) or at 2 h only (- NADPH). The remaining fraction of the PAR was quantified for each sample. Additionally, one key metabolite (MET) was measured. Its amount is expressed as fraction of PAR converted to MET, assuming an equimolar PAR to MET reaction, 100 % indicates a complete conversion. The middle-dashed line indicates a metabolite formation of at least 10% of PAR. Data are means of two measurements n.d. = not detected.
(1 picture or pasted object on this page, not shown here)
Background: Microsomes from liver hold many membrane-bound enzymes, among them those of drug oxidation.

Data set [3] concerns LUHMES cells. Here is the method:
Figure 4 A strategy to incorporate metabolic competence into in vitro DNT testing methods. (A) A schematic overview of a sequential metabolism and testing approach. The “metabolisation module” uses hepatic post-mitochondrial fractions (S9) to generate metabolite mixtures in the presence or absence of cofactors (NADPH, glucose-6-phosphate, MgCl2). These metabolite mixtures are tested in the “testing module” in a concentration-dependent manner after serial pre-dilutions. Metabolite mixtures are added as a fraction of 10% to the media volume of the “testing module”. The testing module may be a cell-based neurotoxicity (NT) or developmental neurotoxicity (DNT) assay, such as the neurite outgrowth or migration assay. Here, the Mito-Met neurite outgrowth assay, as in Figure 1, was used. […] The curves represent data from three independent experiments and were fitted using a four-parameter Hill function. […] The data represent three independent experiments. The indicated concentrations are “testing module” concentrations.
To further evaluate our modular pre-activation strategy for identifying metabolite-mediated hazard, we tested a broader panel of compounds. For each compound (parent), a single concentration was used in the metabolisation module. The metabolite mixtures were generated in the absence or presence of NADPH. These metabolite mixtures were serially diluted and assessed using the MitoMet neurite outgrowth assay. As a measure of potency, EC25 values were determined, and potency ratios were calculated to compare the effects of NADPH-dependent versus NADPH-independent metabolism.
Figure 5 The effect of NADPH-dependent hepatic metabolism on the DNT of selected compounds. (A) A strategy scheme to assess the effect of metabolic enzymes on the outcome of cell-based DNT assays. Metabolite mixtures are generated using the NADPH-(in)dependent metabolic activity of S9. NADPH-independent metabolism is shown in green (light grey). NADPH-dependent metabolism is shown in red (dark grey). […] (B–F) The concentration-dependent effect of metabolite mixtures on neurite outgrowth was measured as in Figure 1, with the following modifications: red-fluorescent-protein (RFP)-expressing LUHMES cells were used. As the assay endpoint, the RFP fluorescence of neurites was used instead of calcein staining. The curves represent data from three independent experiments and were fitted using a four-parameter Hill function. From this, an EC25 was calculated. Bold numbers indicate the fold changes between EC25 values of the NADPH-(in)dependent metabolite mixtures, with the direction of the arrow reflecting the shift in sensitivity. Note that the x-axes indicate nominal concentrations of parent compounds. […] Similar images were used for neurite quantification. The right image (red frame) of the pairs was obtained with NADPH. The black arrowheads above the curves indicate the experimental conditions used to record images. The scale bar in orange corresponds to 50 µm.
as §1, with “plates.” for “plates. The final assay medium consisted of glucose-free AdvDMEM/F12 supplemented with galactose (18 mM), L-glutamine (2 mM), and tetracycline (1 µg/mL). One hour after replating, the cells were treated with a 10× concentrated stock solution of the test compound. Neurite outgrowth and viability were determined 24 h later, using automated high content imaging.”

Setting [4] is: human liver microsomes, listed under the metabolite.

Each structure is given as a SMILES string. Read-outs that look alike come from different tables or passages of the source.

In the case of `C[C@H]1[C@H](OC(=O)CCC(=O)O)O[C@@H]2O[C@@]3(C)CC[C@H]4[C@H](C)CC[C@@H]1[C@@]24OO3` [Artesunate], the IC25 in data set [1] turned out to be 3.4 µM. Also, the “extent of metabolite formation” value in data set [2] (human liver microsomes) is on record as “completely converted”.
With `CCCCNC(=O)n1c(NC(=O)OC)nc2ccccc21` [Benomyl], the IC25 in data set [1] was found to be 3.7 µM.
In the case of `COc1ccc2cc3[n+](cc2c1OC)CCc1cc2c(cc1-3)OCO2` [Berberine], the “fold change between EC25 values of NADPH-(in)dependent metabolite mixtures (detoxification)” value in data set [3] is 5 x. Also, in data set [3] (result in words), the “effect of metabolisation in the presence of NADPH on toxicity” value is “reduced”.
With `O=P1(N(CCCl)CCCl)NCCCO1` (stereo not shown) [Cyclophosphamide], the “inhibition of neurite outgrowth without preincubation” value in data set [3] (100 µM, 50 µg/mL S9, no preincubation) is “No inhibition of neurite outgrowth”. The “reduction of neurite outgrowth” value in data set [3] (100 µM, 50 µg/mL S9, with NADPH, 2 h preincubation) is recorded as “approximately 90%”. Besides, the “neurite toxicity at low S9 concentrations” value in data set [3] (100 µM, S9 <10 µg/mL, 2 h incubation) is given as “did not lead to neurite toxicity”. The “fold change between EC25 values of NADPH-independent and NADPH-dependent metabolite mixtures (toxification)” value in data set [3] (rat liver S9 50 µg/mL in testing module, 2 h preincubation, RFP-LUHMES, toxicity increased with NADPH) is above 25 x.
Turning to `C[C@H]1[C@@H](O)O[C@@H]2O[C@@]3(C)CC[C@H]4[C@H](C)CC[C@@H]1[C@@]24OO3` [Dihydroartemisinin], in data set [1], the IC25 was determined as 1.2 µM; the “fold change between BMC25 values of parent and metabolite (potency ratio, parent divided by metabolite)” value came to 3 fold. In addition, in data set [2], the “cofactor (NADPH) dependence of metabolite formation” value is “largely independently of NADPH”. Moreover, the “metabolite formation over time” value in data set [2] (setting [4]) was “time-dependent increase in metabolite formation”.
In the case of `COC(=O)Nc1nc2ccc(Sc3ccccc3)cc2[nH]1` [Fenbendazole], the IC25 in data set [1] turned out to be 0.047 µM.
Regarding `O=C(CCC[n+]1ccc(-c2ccc(Cl)cc2)cc1)c1ccc(F)cc1` [HPP+, haloperidol pyridinium ion], in data set [1], the IC25 is 7.1 µM; the “fold change between BMC25 values of parent and metabolite (potency ratio, parent divided by metabolite)” value is given as 4 fold. The “extent of metabolite formation” value in data set [2] (human liver microsomes) was “only trace amounts”. Besides, the “metabolite formation over time” value in data set [2] (setting [4]) is “time-dependent increase in metabolite formation”.
On to `O=C(CCCN1CCC(O)(c2ccc(Cl)cc2)CC1)c1ccc(F)cc1` [Haloperidol], for which, in data set [1], the IC25 is above 33 µM.
As to `O=P1(NCCCl)OCCCN1CCCl` (stereo not shown) [Ifosfamide], the “fold change between EC25 values of NADPH-independent and NADPH-dependent metabolite mixtures (toxification)” value in data set [3] is on record as above 10 x.
On to `CNC(C)Cc1ccc2c(c1)OCO2` (stereo not shown) [MDMA, methylenedioxymethamphetamine], for which the IC25 in data set [1] is above 100 µM.
With `C[n+]1ccc(-c2ccccc2)cc1` [MPP+, 1-methyl-4-phenylpyridinium], in data set [1], the IC25 came to 0.12 µM. In addition, the “cofactor (NADPH) dependence of metabolite formation” value in data set [2] is “largely independently of NADPH”. Also, in data set [2] (setting [4]), the “metabolite formation over time” value is “time-dependent increase in metabolite formation”. Also, in data set [2] (human liver microsomes, up to 2 h, listed under the metabolite), the “conversion rate of parent to metabolite” value is given as “approximately 10%”.
Regarding `CN1CC=C(c2ccccc2)CC1` [MPTP, 1-methyl-4-phenyl-tetrahydropyridine], the IC25 in data set [1] was above 100 µM.
On to `CC(N)Cc1ccc(O)c(O)c1` (stereo not drawn) [α-Methyldopamine], for which, in data set [1], the IC25 amounted to 16 µM; the “fold change between BMC25 values of parent and metabolite (potency ratio, parent divided by metabolite)” value is reported as above 6 fold.

The record behind these values is paper PMC12428754, “Testing Strategies for Metabolite-Mediated Neurotoxicity” (International Journal of Molecular Sciences, 2025).
